Laboratory results from EP0300423A2, “Cephalosporin compound, method of its production and composition for prevention and treatment of bacterial infectious diseases” (Kyoto Pharmaceutical Industries, Ltd., priority 1987, dated 1989).
Values after ≈ are worked out from the molar mass of the structure shown. Where a name gives a salt, the structure may show the parent alone.

Tests used:
[1] = system: Staphylococcus aureus Smith; experiment: Antibacterial activity test, minimum inhibitory concentration; type: cell-based
[2] = system: Escherichia coli NIH; experiment: as above; type: cell-based
[3] = Acute toxicity test, oral administration; details: mouse, in vivo, male ICR mice, 5 weeks in age, n = 3, orally administered as aqueous solution in distilled water, read-out: LDso value
Method: The acute toxicity of the orally administered cephalosporin derivative of this invention in mice was determined. The test is summarized as follows:
Subject animals: Male mice (ICR, at 5 weeks in age), n = 3
Method of administration: The cephalosporin derivative as obtained in Example 3 below was dissolved in distilled water, and this aqueous solution was orally administered.

O=C(O)C1=C(CSc2ncns2)CS[C@@H]2[C@H](NC(=O)[C@H](O)c3ccccc3)C(=O)N12 [Example 1, 7-D-(-)Mandelamido-3-(1,2,4-thiadiazol-5-yl)thiomethyl-3-cephem-4-carboxylic acid]
MIC [1]: 0.2 mg/L (≈ 0.431 µM)
MIC [2]: 0.39 mg/L (≈ 0.84 µM)

N[C@@H](C(=O)N[C@@H]1C(=O)N2C(C(=O)O)=C(Cl)CS[C@H]12)c1ccccc1 [Cefaclor, cefaclor, reference compound]
MIC [1]: 1.56 mg/L (≈ 4.24 µM)
MIC [2]: 0.78 mg/L (≈ 2.12 µM)

C[C@H](N)C(=O)O[C@@H](C(=O)N[C@@H]1C(=O)N2C(C(=O)OCOC(=O)C(C)(C)C)=C(CSc3ncns3)CS[C@H]12)c1ccccc1 [Example 3, Pivaloyloxymethyl 7-[D-O-(L-alanyl)mandelamido]-3-[(1,2,4-thiadiazol-5-yl)thiomethyl]-3-cephem-4-carboxylate hydrochloride]
LD50 [3]: < 5000 mg/kg
